Experimental data: ChEMBL document CHEMBL4396916, “Novel potent substituted 4-amino-2-thiopyrimidines as dual VEGFR-2 and BRAF kinase inhibitors” (Eur J Med Chem, 2019)

Tests used:
[1] = tested on: MDA-MB-231; assay: Growth inhibition of human MDA-MB-231 cells at 10 uM incubated for 48 hrs by sulforhodamine B assay relative to control; assay type: functional; conditions: MDA-MB-231, 48 h, read-out: GI
[2] = tested on: UO-31; assay: Growth inhibition of human UO31 cells at 10 uM incubated for 48 hrs by sulforhodamine B assay relative to control; assay type: functional; conditions: UO-31, 48 h, read-out: GI
[3] = tested on: T47D; assay: Growth inhibition of human T47D cells at 10 uM incubated for 48 hrs by sulforhodamine B assay relative to control; assay type: functional; conditions: read-out: GI
[4] = tested on: HCT-116; assay: Growth inhibition of human HCT116 cells at 10 uM incubated for 48 hrs by sulforhodamine B assay relative to control; assay type: functional; conditions: HCT-116, 48 h, read-out: GI
[5] = tested on: NCI-H23; assay: Growth inhibition of human NCI-H23 cells at 10 uM incubated for 48 hrs by sulforhodamine B assay relative to control; assay type: functional; conditions: NCI-H23, 48 h, read-out: GI
[6] = tested on: T47D; assay: Cytotoxicity against human T47D cells expressing wild type BRAF measured after 48 hrs by sulforhodamine B assay; assay type: functional, cell-based
[7] = tested on: OVCAR-4; assay: Growth inhibition of human OVCAR4 cells at 10 uM incubated for 48 hrs by sulforhodamine B assay relative to control; assay type: functional; conditions: OVCAR-4, 48 h, read-out: GI
[8] = tested on: RXF 393; assay: Growth inhibition of human RXF393 cells at 10 uM incubated for 48 hrs by sulforhodamine B assay relative to control; assay type: functional; conditions: RXF 393, 48 h, read-out: GI
[9] = molecular target: Serine/threonine-protein kinase B-raf (Homo sapiens, UniProt P15056); assay: Inhibition of human wild type BRAF by Kinase-Glo luminescence assay
[10] = tested on: MCF7; assay: Growth inhibition of human MCF7 cells at 10 uM incubated for 48 hrs by sulforhodamine B assay relative to control; assay type: functional; conditions: MCF7, 48 h, read-out: GI
[11] = tested on: MCF7; assay: Inhibition of VEGFR2 level in human MCF7 cells at 10 uM measured after 48 hrs by ELISA relative to control; assay type: functional; conditions: MCF7, 48 h
[12] = tested on: ACHN; assay: Growth inhibition of human ACHN cells at 10 uM incubated for 48 hrs by sulforhodamine B assay relative to control; assay type: functional; conditions: read-out: GI
[13] = tested on: NCI-H522; assay: Growth inhibition of human NCI-H522 cells at 10 uM incubated for 48 hrs by sulforhodamine B assay relative to control; assay type: functional; conditions: NCI-H522, 48 h, read-out: GI
[14] = tested on: NCI/ADR-RES; assay: Growth inhibition of human NCI/ADR-RES cells at 10 uM incubated for 48 hrs by sulforhodamine B assay relative to control; assay type: functional; conditions: read-out: GI
[15] = tested on: SK-MEL-5; assay: Growth inhibition of human SK-MEL-5 cells at 10 uM incubated for 48 hrs by sulforhodamine B assay relative to control; assay type: functional; conditions: SK-MEL-5, 48 h, read-out: GI
[16] = tested on: CAKI-1; assay: Growth inhibition of human Caki1 cells at 10 uM incubated for 48 hrs by sulforhodamine B assay relative to control; assay type: functional; conditions: CAKI-1, 48 h, read-out: GI
[17] = tested on: UACC-62; assay: Growth inhibition of human UACC62 cells at 10 uM incubated for 48 hrs by sulforhodamine B assay relative to control; assay type: functional; conditions: UACC-62, 48 h, read-out: GI
[18] = tested on: CCRF-CEM; assay: Growth inhibition of human CCRF-CEM cells at 10 uM incubated for 48 hrs by sulforhodamine B assay relative to control; assay type: functional; conditions: read-out: GI
[19] = tested on: OVCAR-8; assay: Growth inhibition of human OVCAR8 cells at 10 uM incubated for 48 hrs by sulforhodamine B assay relative to control; assay type: functional; conditions: OVCAR-8, 48 h, read-out: GI
[20] = tested on: MOLT-4; assay: Growth inhibition of human MOLT4 cells at 10 uM incubated for 48 hrs by sulforhodamine B assay relative to control; assay type: functional; conditions: MOLT-4, 48 h, read-out: GI
[21] = tested on: RPMI-8226; assay: Growth inhibition of human RPMI8226 cells at 10 uM incubated for 48 hrs by sulforhodamine B assay relative to control; assay type: functional; conditions: RPMI-8226, 48 h, read-out: GI
[22] = molecular target: Vascular endothelial growth factor receptor 2 (Homo sapiens, UniProt P35968); assay: Inhibition of human N-terminal GST tagged VEGFR-2 expressed in baculovirus infected Sf9 cells using poly (Glu,Tyr) 4:1 as substrate in presence of ATP by Kinase-Glo luminescence assay
[23] = tested on: MCF7; assay: Cytotoxicity against human MCF7 cells expressing VEGFR2 and wild type BRAF measured after 48 hrs by sulforhodamine B assay; assay type: functional, cell-based; conditions: MCF7, 48 h
[24] = tested on: MDA-MB-468; assay: Growth inhibition of human MDA-MB-468 cells at 10 uM incubated for 48 hrs by sulforhodamine B assay relative to control; assay type: functional; conditions: MDA-MB-468, 48 h, read-out: GI
[25] = tested on: LOX IMVI; assay: Growth inhibition of human LOXIMVI cells at 10 uM incubated for 48 hrs by sulforhodamine B assay relative to control; assay type: functional; conditions: read-out: GI
[26] = tested on: PC-3; assay: Growth inhibition of human PC3 cells at 10 uM incubated for 48 hrs by sulforhodamine B assay relative to control; assay type: functional; conditions: PC-3, 48 h, read-out: GI
[27] = tested on: K562; assay: Growth inhibition of human K562 cells at 10 uM incubated for 48 hrs by sulforhodamine B assay relative to control; assay type: functional; conditions: K562, 48 h, read-out: GI
[28] = tested on: IGROV-1; assay: Growth inhibition of human IGROV1 cells at 10 uM incubated for 48 hrs by sulforhodamine B assay relative to control; assay type: functional; conditions: IGROV-1, 48 h, read-out: GI
[29] = tested on: NCI-H226; assay: Growth inhibition of human NCI-H226 cells at 10 uM incubated for 48 hrs by sulforhodamine B assay relative to control; assay type: functional; conditions: NCI-H226, 48 h, read-out: GI
[30] = tested on: SF-295; assay: Growth inhibition of human SF295 cells at 10 uM incubated for 48 hrs by sulforhodamine B assay relative to control; assay type: functional; conditions: SF-295, 48 h, read-out: GI
[31] = tested on: U-251; assay: Growth inhibition of human U251 cells at 10 uM incubated for 48 hrs by sulforhodamine B assay relative to control; assay type: functional; conditions: U-251, 48 h, read-out: GI
[32] = tested on: SNB-19; assay: Growth inhibition of human SNB19 cells at 10 uM incubated for 48 hrs by sulforhodamine B assay relative to control; assay type: functional; conditions: SNB-19, 48 h, read-out: GI
[33] = tested on: HOP-62; assay: Growth inhibition of human HOP62 cells at 10 uM incubated for 48 hrs by sulforhodamine B assay relative to control; assay type: functional; conditions: HOP-62, 48 h, read-out: GI
[34] = tested on: A549; assay: Growth inhibition of human A549/ATCC cells at 10 uM incubated for 48 hrs by sulforhodamine B assay relative to control; assay type: functional; conditions: A549, 48 h, read-out: GI
[35] = tested on: Hs-578T; assay: Growth inhibition of human Hs578T cells at 10 uM incubated for 48 hrs by sulforhodamine B assay relative to control; assay type: functional; conditions: read-out: GI
[36] = tested on: SN12C; assay: Growth inhibition of human SN12C cells at 10 uM incubated for 48 hrs by sulforhodamine B assay relative to control; assay type: functional; conditions: read-out: GI
[37] = tested on: SK-OV-3; assay: Growth inhibition of human SKOV3 cells at 10 uM incubated for 48 hrs by sulforhodamine B assay relative to control; assay type: functional; conditions: SK-OV-3, 48 h, read-out: GI
[38] = tested on: EKVX; assay: Growth inhibition of human EKVX cells at 10 uM incubated for 48 hrs by sulforhodamine B assay relative to control; assay type: functional; conditions: read-out: GI
[39] = tested on: SNB-75; assay: Growth inhibition of human SNB75 cells at 10 uM incubated for 48 hrs by sulforhodamine B assay relative to control; assay type: functional; conditions: SNB-75, 48 h, read-out: GI
[40] = tested on: HL-60(TB); assay: Growth inhibition of human HL-60(TB) cells at 10 uM incubated for 48 hrs by sulforhodamine B assay relative to control; assay type: functional; conditions: HL-60, 48 h, read-out: GI
[41] = tested on: SF-539; assay: Growth inhibition of human SF539 cells at 10 uM incubated for 48 hrs by sulforhodamine B assay relative to control; assay type: functional; conditions: SF-539, 48 h, read-out: GI
[42] = tested on: A498; assay: Growth inhibition of human A498 cells at 10 uM incubated for 48 hrs by sulforhodamine B assay relative to control; assay type: functional; conditions: A498, 48 h, read-out: GI
[43] = tested on: SF-268; assay: Growth inhibition of human SF268 cells at 10 uM incubated for 48 hrs by sulforhodamine B assay relative to control; assay type: functional; conditions: SF-268, 48 h, read-out: GI

Sequence of Vascular endothelial growth factor receptor 2 (P35968 whole entry): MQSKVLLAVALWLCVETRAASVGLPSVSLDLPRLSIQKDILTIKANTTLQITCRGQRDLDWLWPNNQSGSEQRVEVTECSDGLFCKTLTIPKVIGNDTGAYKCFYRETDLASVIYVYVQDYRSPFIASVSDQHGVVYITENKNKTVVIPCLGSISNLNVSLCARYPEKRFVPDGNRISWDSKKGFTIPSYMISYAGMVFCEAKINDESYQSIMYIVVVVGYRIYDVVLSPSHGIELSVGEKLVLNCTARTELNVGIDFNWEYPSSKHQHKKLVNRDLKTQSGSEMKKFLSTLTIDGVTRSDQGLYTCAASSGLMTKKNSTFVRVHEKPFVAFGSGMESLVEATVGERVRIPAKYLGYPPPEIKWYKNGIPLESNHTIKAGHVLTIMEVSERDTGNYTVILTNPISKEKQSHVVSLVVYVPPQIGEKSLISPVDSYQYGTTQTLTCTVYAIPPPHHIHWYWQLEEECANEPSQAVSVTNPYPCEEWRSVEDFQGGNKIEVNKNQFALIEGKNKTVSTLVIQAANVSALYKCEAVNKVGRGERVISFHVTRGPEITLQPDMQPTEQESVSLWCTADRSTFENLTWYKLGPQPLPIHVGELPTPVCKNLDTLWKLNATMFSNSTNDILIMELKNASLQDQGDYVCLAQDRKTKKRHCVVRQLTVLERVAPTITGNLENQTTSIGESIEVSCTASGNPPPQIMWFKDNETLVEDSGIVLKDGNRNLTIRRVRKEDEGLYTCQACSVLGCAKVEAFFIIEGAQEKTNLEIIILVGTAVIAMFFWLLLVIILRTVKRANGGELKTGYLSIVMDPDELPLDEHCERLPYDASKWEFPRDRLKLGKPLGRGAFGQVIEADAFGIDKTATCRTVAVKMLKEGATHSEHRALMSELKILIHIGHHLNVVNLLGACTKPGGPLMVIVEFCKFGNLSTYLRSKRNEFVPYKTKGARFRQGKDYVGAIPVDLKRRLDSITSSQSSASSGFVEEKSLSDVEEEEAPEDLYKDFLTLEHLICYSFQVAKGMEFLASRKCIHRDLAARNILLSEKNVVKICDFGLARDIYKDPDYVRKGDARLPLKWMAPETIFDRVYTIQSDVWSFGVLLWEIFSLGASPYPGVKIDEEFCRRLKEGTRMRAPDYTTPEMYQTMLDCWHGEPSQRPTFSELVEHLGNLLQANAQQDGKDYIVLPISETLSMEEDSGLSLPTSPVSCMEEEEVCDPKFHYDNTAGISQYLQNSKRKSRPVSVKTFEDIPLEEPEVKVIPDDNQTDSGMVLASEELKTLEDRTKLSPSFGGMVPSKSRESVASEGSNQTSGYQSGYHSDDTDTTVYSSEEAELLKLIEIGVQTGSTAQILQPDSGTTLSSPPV
Sequence of Serine/threonine-protein kinase B-raf (P15056 whole entry): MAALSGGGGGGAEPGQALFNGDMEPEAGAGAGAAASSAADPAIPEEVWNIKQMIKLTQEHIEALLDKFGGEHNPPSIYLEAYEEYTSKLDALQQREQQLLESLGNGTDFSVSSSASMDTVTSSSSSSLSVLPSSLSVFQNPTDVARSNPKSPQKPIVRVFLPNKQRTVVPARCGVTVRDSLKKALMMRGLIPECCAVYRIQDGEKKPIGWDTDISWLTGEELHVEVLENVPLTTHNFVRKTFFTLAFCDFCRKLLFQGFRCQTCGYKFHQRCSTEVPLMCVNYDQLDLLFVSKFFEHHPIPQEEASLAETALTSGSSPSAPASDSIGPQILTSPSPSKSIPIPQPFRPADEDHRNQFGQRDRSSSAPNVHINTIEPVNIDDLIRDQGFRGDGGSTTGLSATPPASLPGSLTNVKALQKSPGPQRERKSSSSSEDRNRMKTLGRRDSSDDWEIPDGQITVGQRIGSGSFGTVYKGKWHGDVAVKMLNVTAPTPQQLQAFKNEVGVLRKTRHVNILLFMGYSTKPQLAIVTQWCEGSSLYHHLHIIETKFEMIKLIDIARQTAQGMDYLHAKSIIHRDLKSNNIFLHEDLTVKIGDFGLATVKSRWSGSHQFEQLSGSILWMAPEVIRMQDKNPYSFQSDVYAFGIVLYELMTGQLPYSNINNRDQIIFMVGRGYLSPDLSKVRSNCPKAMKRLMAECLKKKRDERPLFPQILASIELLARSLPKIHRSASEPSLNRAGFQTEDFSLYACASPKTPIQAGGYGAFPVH

SMILES | inhibition of growth at 10 µM [1] [%] | inhibition of growth at 10 µM [2] [%] | inhibition of growth at 10 µM [3] [%] | inhibition of growth at 10 µM [4] [%] | inhibition of growth at 10 µM [5] [%] | IC50 [6] [µM] | inhibition of growth at 10 µM [8] [%] | inhibition of growth at 10 µM [12] [%] | inhibition of growth at 10 µM [13] [%] | inhibition of growth at 10 µM [16] [%] | inhibition of growth at 10 µM [17] [%] | inhibition of growth at 10 µM [18] [%] | inhibition of growth at 10 µM [21] [%] | IC50 [22] [µM] | IC50 [23] [µM] | inhibition of growth at 10 µM [24] [%] | inhibition of growth at 10 µM [26] [%] | inhibition of growth at 10 µM [27] [%] | inhibition of growth at 10 µM [28] [%] | inhibition of growth at 10 µM [29] [%] | further results
COc1ccc(C(=O)CSc2nccc(Nc3ccc(N4CCOCC4)cc3)n2)cc1 | 11 | 35 | 67 | 18 | 15 | 4.36 | 10 | 11 | 34 | 16 | 30 | 21 | 45 | 0.29 | 23 | 13 | 16 | 21 | 12 | 13 | inhibition of growth at 10 µM [7]: 15%; IC50 [9]: 0.44 µM; inhibition of growth at 10 µM [10]: 17%; inhibition at 10 µM [11]: 52%; inhibition of growth at 10 µM [14]: 24%; inhibition of growth at 10 µM [15]: 53%; inhibition of growth at 10 µM [19]: 24%; inhibition of growth at 10 µM [20]: 34%; inhibition of growth at 10 µM [25]: 11%
CC(=O)c1cccc(Nc2ccnc(SCC(=O)c3ccc(C(F)(F)F)cc3)n2)c1 | 22 | 57 | 37 | 28 | 21 | 17.1 | 11 | 19 | 27 | 42 | 29 | 10 | 31 | > 10 | 28.2 | 16 | 30 | 29 | 44 | 24 | inhibition of growth at 10 µM [30]: 15%; inhibition of growth at 10 µM [31]: 12%; inhibition of growth at 10 µM [32]: 10%; inhibition of growth at 10 µM [33]: 17%; inhibition of growth at 10 µM [34]: 12%; inhibition of growth at 10 µM [35]: 11%; inhibition of growth at 10 µM [10]: 26%; inhibition of growth at 10 µM [36]: 17%; inhibition of growth at 10 µM [14]: 11%; inhibition of growth at 10 µM [15]: 14%; inhibition of growth at 10 µM [37]: 21%; inhibition of growth at 10 µM [38]: 28%; inhibition of growth at 10 µM [20]: 24%; inhibition of growth at 10 µM [25]: 13%; inhibition of growth at 10 µM [39]: 32%; inhibition of growth at 10 µM [40]: < 10%
O=C(CSc1nccc(Nc2ccc(N3CCOCC3)cc2)n1)c1ccc(Cl)cc1 | 10 | 26 | – | – | 19 | – | – | 10 | 22 | 23 | 10 | 13 | 10 | 1.9 | 73.3 | 19 | 12 | 10 | 17 | 13 | inhibition of growth at 10 µM [32]: 19%; inhibition of growth at 10 µM [33]: 37%; inhibition of growth at 10 µM [41]: 15%; inhibition of growth at 10 µM [38]: 10%; inhibition of growth at 10 µM [42]: 13%; inhibition of growth at 10 µM [19]: 17%; inhibition of growth at 10 µM [39]: 36%; inhibition of growth at 10 µM [43]: 15%
